Test results published in ChEMBL document CHEMBL3991601, “The target landscape of clinical kinase drugs” (Science, 2017).
Calls of active or inactive are those of the source.

What was measured:
[1] = target: Mitogen-activated protein kinase 7 (Homo sapiens, UniProt Q13164)
[2] = target: Tyrosine-protein kinase BTK (Homo sapiens, UniProt Q06187)
[3] = target: Midasin (Homo sapiens, UniProt Q9NU22)
[4] = target: U5 small nuclear ribonucleoprotein 200 kDa helicase (Homo sapiens, UniProt O75643)
[5] = target: T1, Bone morphogenetic protein receptor type-2 (Homo sapiens, UniProt Q13873)
T1 sequence (Q13873 whole entry): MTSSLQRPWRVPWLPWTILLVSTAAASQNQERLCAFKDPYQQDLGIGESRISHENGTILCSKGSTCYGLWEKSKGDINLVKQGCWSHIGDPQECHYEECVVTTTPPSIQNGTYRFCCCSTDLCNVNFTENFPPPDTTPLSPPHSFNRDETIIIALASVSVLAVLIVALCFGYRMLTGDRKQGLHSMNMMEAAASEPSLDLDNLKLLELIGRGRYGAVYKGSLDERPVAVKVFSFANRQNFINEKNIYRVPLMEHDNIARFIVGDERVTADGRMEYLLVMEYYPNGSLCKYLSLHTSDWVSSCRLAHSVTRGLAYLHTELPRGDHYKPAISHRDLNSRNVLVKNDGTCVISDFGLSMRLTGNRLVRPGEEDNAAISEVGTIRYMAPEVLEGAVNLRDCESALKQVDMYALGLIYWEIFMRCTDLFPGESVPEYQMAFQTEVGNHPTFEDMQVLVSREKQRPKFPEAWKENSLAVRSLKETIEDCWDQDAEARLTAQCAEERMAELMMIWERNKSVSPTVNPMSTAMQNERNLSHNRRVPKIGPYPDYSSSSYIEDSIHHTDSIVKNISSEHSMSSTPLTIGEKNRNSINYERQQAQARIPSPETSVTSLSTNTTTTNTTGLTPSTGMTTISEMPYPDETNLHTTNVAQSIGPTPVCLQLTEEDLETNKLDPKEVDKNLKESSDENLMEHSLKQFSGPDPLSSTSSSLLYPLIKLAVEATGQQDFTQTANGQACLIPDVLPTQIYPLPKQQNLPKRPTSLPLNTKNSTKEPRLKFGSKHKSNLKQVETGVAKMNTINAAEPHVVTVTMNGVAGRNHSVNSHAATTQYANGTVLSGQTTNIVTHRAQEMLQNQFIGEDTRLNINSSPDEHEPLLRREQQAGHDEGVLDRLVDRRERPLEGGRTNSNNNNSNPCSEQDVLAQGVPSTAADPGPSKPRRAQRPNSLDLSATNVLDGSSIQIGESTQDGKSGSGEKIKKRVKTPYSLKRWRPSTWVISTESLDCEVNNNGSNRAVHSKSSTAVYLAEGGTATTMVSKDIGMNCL

[6] = target: Atypical kinase COQ8A, mitochondrial (Homo sapiens, UniProt Q8NI60)
[7] = target: T2, MAP kinase-activated protein kinase 5 (Homo sapiens, UniProt Q8IW41)
T2 sequence (Q8IW41 whole entry): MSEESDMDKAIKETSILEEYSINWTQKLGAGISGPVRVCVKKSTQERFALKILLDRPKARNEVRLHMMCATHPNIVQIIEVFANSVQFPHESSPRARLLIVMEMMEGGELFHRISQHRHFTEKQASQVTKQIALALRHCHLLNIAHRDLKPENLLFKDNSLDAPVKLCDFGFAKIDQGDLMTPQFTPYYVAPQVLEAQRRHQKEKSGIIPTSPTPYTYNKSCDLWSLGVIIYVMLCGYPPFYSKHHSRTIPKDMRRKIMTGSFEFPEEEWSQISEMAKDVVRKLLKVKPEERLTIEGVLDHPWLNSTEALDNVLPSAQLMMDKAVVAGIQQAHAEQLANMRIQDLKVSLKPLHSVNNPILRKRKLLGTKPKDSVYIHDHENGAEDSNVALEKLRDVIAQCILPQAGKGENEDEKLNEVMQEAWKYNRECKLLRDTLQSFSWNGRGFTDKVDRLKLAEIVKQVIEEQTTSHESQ

[8] = target: T3, Beta-adrenergic receptor kinase 1 (Homo sapiens, UniProt P25098)
T3 sequence (P25098 whole entry): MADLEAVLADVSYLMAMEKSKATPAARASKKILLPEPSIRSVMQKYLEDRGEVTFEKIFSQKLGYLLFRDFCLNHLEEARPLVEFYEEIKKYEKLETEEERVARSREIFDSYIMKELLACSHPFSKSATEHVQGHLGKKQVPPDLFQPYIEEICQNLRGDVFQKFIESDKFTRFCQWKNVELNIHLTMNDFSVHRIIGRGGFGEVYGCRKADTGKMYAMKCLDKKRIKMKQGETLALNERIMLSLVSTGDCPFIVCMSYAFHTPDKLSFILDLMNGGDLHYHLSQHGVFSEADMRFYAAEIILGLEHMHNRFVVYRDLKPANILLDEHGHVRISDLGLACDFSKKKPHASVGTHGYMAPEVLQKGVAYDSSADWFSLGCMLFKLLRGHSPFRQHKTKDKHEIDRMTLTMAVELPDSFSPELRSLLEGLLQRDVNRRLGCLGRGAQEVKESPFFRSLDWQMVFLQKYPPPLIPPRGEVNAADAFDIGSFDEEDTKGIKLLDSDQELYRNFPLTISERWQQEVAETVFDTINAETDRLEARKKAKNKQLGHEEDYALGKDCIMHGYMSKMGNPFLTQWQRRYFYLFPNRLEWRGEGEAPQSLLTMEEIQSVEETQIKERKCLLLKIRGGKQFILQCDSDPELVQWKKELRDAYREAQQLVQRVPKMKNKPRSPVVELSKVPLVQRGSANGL

[9] = target: STE20-like serine/threonine-protein kinase (Homo sapiens, UniProt Q9H2G2)
STE20-like serine/threonine-protein kinase, sequence (Q9H2G2 whole entry): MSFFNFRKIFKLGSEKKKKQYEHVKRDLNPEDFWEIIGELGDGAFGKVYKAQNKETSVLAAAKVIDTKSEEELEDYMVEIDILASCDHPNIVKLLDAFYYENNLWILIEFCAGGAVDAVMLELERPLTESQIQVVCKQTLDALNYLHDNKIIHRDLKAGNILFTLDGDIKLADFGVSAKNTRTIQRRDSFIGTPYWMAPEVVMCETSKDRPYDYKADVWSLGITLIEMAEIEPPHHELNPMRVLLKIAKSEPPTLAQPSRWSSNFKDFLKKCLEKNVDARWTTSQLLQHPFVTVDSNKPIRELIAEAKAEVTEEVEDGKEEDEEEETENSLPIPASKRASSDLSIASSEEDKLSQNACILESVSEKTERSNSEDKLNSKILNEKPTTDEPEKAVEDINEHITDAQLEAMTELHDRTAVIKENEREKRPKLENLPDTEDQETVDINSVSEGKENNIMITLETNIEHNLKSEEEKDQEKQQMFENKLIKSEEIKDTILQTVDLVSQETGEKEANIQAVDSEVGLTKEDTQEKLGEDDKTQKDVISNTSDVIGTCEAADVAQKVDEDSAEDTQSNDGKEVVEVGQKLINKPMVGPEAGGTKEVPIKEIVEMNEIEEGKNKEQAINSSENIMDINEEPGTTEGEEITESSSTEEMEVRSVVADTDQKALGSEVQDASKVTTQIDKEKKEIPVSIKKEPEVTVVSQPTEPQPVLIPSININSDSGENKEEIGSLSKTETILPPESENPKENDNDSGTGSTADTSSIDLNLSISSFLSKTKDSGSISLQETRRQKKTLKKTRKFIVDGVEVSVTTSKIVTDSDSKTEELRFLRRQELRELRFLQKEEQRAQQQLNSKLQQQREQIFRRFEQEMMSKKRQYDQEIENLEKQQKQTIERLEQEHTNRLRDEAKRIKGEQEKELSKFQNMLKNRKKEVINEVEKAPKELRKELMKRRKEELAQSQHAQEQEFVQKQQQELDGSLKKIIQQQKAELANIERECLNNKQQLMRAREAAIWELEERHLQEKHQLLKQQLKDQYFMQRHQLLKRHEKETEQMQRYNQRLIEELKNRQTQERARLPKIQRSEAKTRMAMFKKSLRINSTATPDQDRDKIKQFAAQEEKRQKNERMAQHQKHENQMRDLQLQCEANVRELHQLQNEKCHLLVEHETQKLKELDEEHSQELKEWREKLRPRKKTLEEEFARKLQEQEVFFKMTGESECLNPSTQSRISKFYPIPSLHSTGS

[10] = target: Insulin receptor (Homo sapiens, UniProt P06213)
[11] = target: Casein kinase I isoform epsilon (Homo sapiens, UniProt P49674)
[12] = target: Mitotic checkpoint serine/threonine-protein kinase BUB1 (Homo sapiens, UniProt O43683)
Mitotic checkpoint serine/threonine-protein kinase BUB1, sequence (O43683 whole entry): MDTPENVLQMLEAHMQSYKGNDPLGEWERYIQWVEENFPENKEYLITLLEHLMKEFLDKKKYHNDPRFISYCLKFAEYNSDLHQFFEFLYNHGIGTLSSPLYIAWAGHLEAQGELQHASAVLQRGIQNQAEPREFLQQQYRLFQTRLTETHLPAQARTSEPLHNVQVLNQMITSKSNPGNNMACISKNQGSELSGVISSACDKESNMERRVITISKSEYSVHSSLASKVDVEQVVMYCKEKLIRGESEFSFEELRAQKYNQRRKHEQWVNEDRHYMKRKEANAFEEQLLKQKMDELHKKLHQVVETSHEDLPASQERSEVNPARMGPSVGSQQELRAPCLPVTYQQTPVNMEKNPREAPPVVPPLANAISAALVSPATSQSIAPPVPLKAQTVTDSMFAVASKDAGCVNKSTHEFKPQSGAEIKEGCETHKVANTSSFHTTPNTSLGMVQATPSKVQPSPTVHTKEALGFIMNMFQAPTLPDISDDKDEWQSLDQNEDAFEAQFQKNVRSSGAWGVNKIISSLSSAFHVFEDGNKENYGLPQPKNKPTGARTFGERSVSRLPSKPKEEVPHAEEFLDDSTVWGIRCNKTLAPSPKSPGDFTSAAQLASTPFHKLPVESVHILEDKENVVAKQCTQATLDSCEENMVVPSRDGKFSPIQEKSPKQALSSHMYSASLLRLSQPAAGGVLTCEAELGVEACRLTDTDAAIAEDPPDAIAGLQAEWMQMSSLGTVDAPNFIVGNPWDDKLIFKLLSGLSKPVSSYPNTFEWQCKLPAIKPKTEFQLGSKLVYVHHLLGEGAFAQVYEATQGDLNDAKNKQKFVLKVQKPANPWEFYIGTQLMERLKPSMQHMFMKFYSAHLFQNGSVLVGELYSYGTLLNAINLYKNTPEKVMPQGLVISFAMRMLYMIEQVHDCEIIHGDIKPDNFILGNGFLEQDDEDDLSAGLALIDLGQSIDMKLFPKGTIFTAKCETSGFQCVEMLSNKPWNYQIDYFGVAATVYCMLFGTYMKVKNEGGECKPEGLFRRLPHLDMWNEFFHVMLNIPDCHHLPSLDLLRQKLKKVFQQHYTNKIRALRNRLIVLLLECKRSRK

[13] = target: Cyclin-dependent kinase 13 (Homo sapiens, UniProt Q14004)
Note: in the data inactive means no Kd found up to 30 µM.

Tyrosine-protein kinase BTK, sequence (Q06187 whole entry): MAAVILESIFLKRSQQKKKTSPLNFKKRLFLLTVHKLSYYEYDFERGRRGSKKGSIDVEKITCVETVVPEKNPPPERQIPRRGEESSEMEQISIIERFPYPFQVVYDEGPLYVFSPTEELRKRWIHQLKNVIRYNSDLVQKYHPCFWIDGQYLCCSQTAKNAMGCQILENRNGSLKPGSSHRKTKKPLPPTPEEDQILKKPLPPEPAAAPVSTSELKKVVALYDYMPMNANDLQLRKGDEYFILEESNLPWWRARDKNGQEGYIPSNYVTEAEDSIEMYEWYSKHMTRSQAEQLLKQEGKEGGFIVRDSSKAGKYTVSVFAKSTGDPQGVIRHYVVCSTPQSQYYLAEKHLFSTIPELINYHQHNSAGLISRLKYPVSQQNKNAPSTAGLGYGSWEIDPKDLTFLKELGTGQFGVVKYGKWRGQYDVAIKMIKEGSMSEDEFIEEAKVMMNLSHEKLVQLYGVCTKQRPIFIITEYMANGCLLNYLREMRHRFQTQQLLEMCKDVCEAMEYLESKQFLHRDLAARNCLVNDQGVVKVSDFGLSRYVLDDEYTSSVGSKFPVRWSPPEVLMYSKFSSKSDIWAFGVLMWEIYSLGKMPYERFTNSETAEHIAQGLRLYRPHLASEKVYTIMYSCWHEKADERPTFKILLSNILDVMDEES
U5 small nuclear ribonucleoprotein 200 kDa helicase, sequence (O75643 whole entry): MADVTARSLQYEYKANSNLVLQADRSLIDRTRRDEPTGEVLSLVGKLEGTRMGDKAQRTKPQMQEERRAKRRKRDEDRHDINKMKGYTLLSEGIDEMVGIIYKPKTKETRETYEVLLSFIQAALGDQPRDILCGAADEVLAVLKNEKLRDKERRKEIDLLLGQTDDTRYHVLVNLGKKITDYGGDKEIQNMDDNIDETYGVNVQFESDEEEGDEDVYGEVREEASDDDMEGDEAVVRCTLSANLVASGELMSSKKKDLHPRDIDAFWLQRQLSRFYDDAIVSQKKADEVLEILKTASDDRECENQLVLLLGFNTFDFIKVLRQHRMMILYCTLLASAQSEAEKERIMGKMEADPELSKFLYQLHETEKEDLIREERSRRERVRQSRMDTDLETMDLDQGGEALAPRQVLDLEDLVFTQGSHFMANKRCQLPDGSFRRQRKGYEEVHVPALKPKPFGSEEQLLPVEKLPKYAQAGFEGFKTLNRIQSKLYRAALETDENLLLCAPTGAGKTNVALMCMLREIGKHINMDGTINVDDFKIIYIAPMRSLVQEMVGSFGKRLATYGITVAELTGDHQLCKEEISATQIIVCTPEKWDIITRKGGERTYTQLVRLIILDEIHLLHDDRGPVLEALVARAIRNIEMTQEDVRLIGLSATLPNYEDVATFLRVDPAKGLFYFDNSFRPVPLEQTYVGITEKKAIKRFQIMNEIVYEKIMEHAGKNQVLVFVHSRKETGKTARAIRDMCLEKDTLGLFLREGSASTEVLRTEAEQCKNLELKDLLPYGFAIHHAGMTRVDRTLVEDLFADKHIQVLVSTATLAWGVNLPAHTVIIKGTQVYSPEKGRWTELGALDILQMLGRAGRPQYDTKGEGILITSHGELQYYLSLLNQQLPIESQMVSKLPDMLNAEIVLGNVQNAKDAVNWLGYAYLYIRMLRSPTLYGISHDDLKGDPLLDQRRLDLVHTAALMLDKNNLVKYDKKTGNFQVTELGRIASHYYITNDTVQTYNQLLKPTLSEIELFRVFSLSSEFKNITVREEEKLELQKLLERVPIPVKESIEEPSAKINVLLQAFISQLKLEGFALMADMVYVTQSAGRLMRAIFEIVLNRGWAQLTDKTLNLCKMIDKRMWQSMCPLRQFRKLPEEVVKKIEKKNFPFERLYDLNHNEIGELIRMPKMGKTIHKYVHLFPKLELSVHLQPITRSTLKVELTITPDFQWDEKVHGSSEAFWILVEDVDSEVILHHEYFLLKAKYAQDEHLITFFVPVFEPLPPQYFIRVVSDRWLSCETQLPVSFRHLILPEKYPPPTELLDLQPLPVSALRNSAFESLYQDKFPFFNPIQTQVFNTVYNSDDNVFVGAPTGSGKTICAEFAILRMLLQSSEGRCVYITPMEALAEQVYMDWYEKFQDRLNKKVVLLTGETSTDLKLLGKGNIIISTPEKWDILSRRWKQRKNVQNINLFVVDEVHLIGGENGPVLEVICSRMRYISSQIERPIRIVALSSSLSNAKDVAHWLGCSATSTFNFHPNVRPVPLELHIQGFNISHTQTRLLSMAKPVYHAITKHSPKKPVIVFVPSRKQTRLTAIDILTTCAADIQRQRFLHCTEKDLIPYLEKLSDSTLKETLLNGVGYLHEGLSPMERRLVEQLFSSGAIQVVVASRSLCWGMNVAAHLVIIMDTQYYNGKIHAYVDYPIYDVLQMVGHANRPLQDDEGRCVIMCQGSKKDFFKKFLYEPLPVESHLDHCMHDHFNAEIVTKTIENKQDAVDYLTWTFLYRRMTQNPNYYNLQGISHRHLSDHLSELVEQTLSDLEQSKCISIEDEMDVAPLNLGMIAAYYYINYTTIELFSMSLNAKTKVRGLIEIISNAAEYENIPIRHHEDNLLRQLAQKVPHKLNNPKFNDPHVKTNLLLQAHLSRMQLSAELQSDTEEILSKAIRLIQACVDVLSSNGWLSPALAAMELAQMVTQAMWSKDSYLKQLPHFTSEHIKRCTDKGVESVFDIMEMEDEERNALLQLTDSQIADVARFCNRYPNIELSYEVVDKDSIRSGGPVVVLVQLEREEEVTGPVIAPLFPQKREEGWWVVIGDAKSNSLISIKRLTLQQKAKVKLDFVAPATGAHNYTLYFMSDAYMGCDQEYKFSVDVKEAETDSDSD

| Kd [1] | Kd [2] | Kd [3] | Kd [4] | Kd [5] | Kd [6] | Kd [7] | Kd [8] | Kd [9] | Kd [10] | Kd [11] | Kd [12] | Kd [13] | SMILES |
| --- | --- | --- | --- | --- | --- | --- | --- | --- | --- | --- | --- | --- | --- |
| > 30 µM (inactive) | > 30 µM (inactive) | > 30 µM (inactive) | > 30 µM (inactive) | > 30 µM (inactive) | > 30 µM (inactive) | > 30 µM (inactive) | > 30 µM (inactive) | 0.686 µM (active) | > 30 µM (inactive) | > 30 µM (inactive) | > 30 µM (inactive) | > 30 µM (inactive) | Cc1cc(Nc2nc(N[C@@H](C)c3ncc(F)cn3)ncc2Cl)n[nH]1 [AZD-1480] |
| > 30 µM (inactive) | > 30 µM (inactive) | > 30 µM (inactive) | > 30 µM (inactive) | > 30 µM (inactive) | > 30 µM (inactive) | > 30 µM (inactive) | > 30 µM (inactive) | 4.37 µM (active) | > 30 µM (inactive) | > 30 µM (inactive) | > 30 µM (inactive) | > 30 µM (inactive) | COc1cc2ncnc(Nc3ccc(O)cc3)c2cc1OC [WHI-P131] |
| > 30 µM (inactive) | > 30 µM (inactive) | > 30 µM (inactive) | > 30 µM (inactive) | > 30 µM (inactive) | > 30 µM (inactive) | > 30 µM (inactive) | > 30 µM (inactive) | > 30 µM (inactive) | > 30 µM (inactive) | > 30 µM (inactive) | > 30 µM (inactive) | > 30 µM (inactive) | O[C@H]1CC[C@H](Nc2ncc3nc(Nc4c(F)cc(F)cc4F)n([C@H]4CCOC4)c3n2)CC1 [TANZISERTIB] |
| > 30 µM (inactive) | > 30 µM (inactive) | > 30 µM (inactive) | > 30 µM (inactive) | > 30 µM (inactive) | > 30 µM (inactive) | > 30 µM (inactive) | > 30 µM (inactive) | > 30 µM (inactive) | > 30 µM (inactive) | > 30 µM (inactive) | > 30 µM (inactive) | > 30 µM (inactive) | CCN1CCN(Cc2ccc(Nc3ncc(F)c(-c4cc(F)c5nc(C)n(C(C)C)c5c4)n3)nc2)CC1 [ABEMACICLIB] |
| > 30 µM (inactive) | > 30 µM (inactive) | > 30 µM (inactive) | > 30 µM (inactive) | > 30 µM (inactive) | > 30 µM (inactive) | > 30 µM (inactive) | > 30 µM (inactive) | > 30 µM (inactive) | > 30 µM (inactive) | > 30 µM (inactive) | > 30 µM (inactive) | > 30 µM (inactive) | FC(F)(F)c1ccc(CNc2ccc(Cc3c[nH]c4ncc(Cl)cc34)cn2)cn1 [PEXIDARTINIB] |
| > 30 µM (inactive) | > 30 µM (inactive) | > 30 µM (inactive) | > 30 µM (inactive) | > 30 µM (inactive) | > 30 µM (inactive) | > 30 µM (inactive) | > 30 µM (inactive) | > 30 µM (inactive) | > 30 µM (inactive) | > 30 µM (inactive) | > 30 µM (inactive) | > 30 µM (inactive) | Cc1cc(C(=O)Nc2cc(Oc3ccc4nc(NC(=O)C5CC5)cn4n3)ccc2C)n(C)n1 [TAK-593] |
| > 30 µM (inactive) | > 30 µM (inactive) | > 30 µM (inactive) | > 30 µM (inactive) | > 30 µM (inactive) | > 30 µM (inactive) | > 30 µM (inactive) | > 30 µM (inactive) | > 30 µM (inactive) | > 30 µM (inactive) | > 30 µM (inactive) | > 30 µM (inactive) | > 30 µM (inactive) | Cn1c(=O)c(F)c(Nc2ccc(I)cc2F)c2c(=O)n(C[C@@H](O)CO)cnc21 [TAK-733] |
| > 30 µM (inactive) | > 30 µM (inactive) | > 30 µM (inactive) | > 30 µM (inactive) | 2.1 µM | > 30 µM (inactive) | > 30 µM (inactive) | > 30 µM (inactive) | > 30 µM (inactive) | > 30 µM (inactive) | > 30 µM (inactive) | > 30 µM (inactive) | > 30 µM (inactive) | COc1cccc2cc(-c3nc([C@H]4CC[C@H](C(=O)O)CC4)n4ncnc(N)c34)[nH]c12 [OSI-027] |

| SMILES | Kd [1] | Kd [2] | Kd [3] | Kd [4] | Kd [5] | Kd [6] | Kd [7] | Kd [8] | Kd [9] | Kd [10] | Kd [11] | Kd [12] | Kd [13] |
| --- | --- | --- | --- | --- | --- | --- | --- | --- | --- | --- | --- | --- | --- |
| Cn1cc(-c2[nH]c3cc(NC(=O)[C@H](N)C4CCCCC4)cc4c3c2C=NNC4=O)cn1 | > 30 µM (inactive) | 2.84 µM (active) | > 30 µM (inactive) | > 30 µM (inactive) | > 30 µM (inactive) | > 30 µM (inactive) | > 30 µM (inactive) | 3.56 µM (active) | > 30 µM (inactive) | > 30 µM (inactive) | > 30 µM (inactive) | > 30 µM (inactive) | > 30 µM (inactive) |
| COc1cc(F)c(F)c(Nc2ccc(I)cc2F)c1NS(=O)(=O)C1(C[C@H](O)CO)CC1 [REFAMETINIB] | > 30 µM (inactive) | > 30 µM (inactive) | > 30 µM (inactive) | > 30 µM (inactive) | > 30 µM (inactive) | > 30 µM (inactive) | > 30 µM (inactive) | > 30 µM (inactive) | > 30 µM (inactive) | > 30 µM (inactive) | > 30 µM (inactive) | > 30 µM (inactive) | > 30 µM (inactive) |
| CC1(COc2ccc3c(c2)ncn3-c2ccc3cccc(N4CCC(N)CC4)c3n2)COC1 [CRENOLANIB] | > 30 µM (inactive) | > 30 µM (inactive) | > 30 µM (inactive) | > 30 µM (inactive) | > 30 µM (inactive) | > 30 µM (inactive) | > 30 µM (inactive) | > 30 µM (inactive) | > 30 µM (inactive) | > 30 µM (inactive) | > 30 µM (inactive) | > 30 µM (inactive) | > 30 µM (inactive) |
| CNC(=O)c1ccc(Nc2ncc(C(F)(F)F)c(NCc3nccnc3N(C)S(C)(=O)=O)n2)cc1 [DEFACTINIB] | > 30 µM (inactive) | > 30 µM (inactive) | > 30 µM (inactive) | > 30 µM (inactive) | > 30 µM (inactive) | > 30 µM (inactive) | > 30 µM (inactive) | > 30 µM (inactive) | 41 µM (active) | > 30 µM (inactive) | > 30 µM (inactive) | > 30 µM (inactive) | 3.11 µM (active) |
